# Earlier results as cited in patent US20050037366A1, “Individual drug safety” (priority 2003, published 2005).
# Entries after “also recorded” stand apart in the source; their conditions may differ.
# Key:
# [1] = men with hormone-refractory prostate cancer
# [2] = target: T1, ABCC2 (MRP2, cMOAT) (Rattus norvegicus, UniProt Q63120); details: rats; ABCC2-mediated mechanisms
# T1 construct: host or cells: rats (in vivo, liver canalicular membrane)
# [3] = system: Bsep (ABCB 11)
# [4] = in vivo
# [5] = rats
# T1 sequence (Q63120 whole entry): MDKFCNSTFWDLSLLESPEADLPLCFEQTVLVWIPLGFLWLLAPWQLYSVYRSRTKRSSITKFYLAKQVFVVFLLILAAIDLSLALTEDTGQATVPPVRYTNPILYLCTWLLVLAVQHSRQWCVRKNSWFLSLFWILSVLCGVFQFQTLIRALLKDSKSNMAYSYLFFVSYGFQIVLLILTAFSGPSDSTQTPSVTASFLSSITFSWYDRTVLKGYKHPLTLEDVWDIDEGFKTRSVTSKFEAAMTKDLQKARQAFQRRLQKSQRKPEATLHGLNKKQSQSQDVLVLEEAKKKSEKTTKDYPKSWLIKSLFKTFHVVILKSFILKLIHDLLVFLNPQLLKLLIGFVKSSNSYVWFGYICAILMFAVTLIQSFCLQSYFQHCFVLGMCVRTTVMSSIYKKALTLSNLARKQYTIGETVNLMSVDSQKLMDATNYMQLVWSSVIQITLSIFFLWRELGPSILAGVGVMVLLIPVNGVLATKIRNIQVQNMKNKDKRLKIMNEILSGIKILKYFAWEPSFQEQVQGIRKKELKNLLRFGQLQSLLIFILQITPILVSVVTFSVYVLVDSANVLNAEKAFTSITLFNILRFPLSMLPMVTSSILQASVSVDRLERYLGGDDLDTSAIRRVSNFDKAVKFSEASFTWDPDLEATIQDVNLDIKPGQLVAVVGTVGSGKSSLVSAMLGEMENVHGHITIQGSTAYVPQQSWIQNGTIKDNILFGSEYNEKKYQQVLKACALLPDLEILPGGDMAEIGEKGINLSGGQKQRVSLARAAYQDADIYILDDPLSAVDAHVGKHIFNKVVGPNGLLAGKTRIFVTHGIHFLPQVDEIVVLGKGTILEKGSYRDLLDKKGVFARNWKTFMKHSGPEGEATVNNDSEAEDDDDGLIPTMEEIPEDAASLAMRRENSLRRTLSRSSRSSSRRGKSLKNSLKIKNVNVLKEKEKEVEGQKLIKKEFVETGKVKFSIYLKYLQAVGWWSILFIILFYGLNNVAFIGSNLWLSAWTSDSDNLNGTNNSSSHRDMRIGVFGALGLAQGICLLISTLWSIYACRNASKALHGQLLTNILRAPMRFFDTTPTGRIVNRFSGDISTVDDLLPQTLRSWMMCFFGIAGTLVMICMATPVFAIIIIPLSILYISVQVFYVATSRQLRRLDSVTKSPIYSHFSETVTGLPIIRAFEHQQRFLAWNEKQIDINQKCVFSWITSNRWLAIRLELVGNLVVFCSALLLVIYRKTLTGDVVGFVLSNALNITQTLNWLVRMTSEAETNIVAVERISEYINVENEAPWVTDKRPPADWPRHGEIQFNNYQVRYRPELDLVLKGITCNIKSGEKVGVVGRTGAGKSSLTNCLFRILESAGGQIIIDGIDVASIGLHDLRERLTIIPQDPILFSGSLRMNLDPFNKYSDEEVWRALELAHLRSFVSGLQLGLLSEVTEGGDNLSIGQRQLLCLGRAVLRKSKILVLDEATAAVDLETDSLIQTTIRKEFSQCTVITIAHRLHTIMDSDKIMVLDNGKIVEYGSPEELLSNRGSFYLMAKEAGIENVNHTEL
structure (smiles),measurement,setting,value
CCCCN(CCCC)C(=O)CN1C[C@H](c2ccc3c(c2)OCO3)[C@@H](C(=O)O)[C@@H]1c1ccc(OC)cc1 [Atrasentan],ADRs in phase II study,[1],"headache, peripheral edema and rhinitis"
COc1ccccc1Oc1c(NS(=O)(=O)c2ccc(C(C)(C)C)cc2)nc(-c2ncccn2)nc1OCCO [Bosentan],canalicular bile formation,[2],alters canalicular bile formation
same,effect on Bsep-mediated canalicular bile salt transport,[3],inhibition of Bsep-mediated canalicular bile salt transport
same,ADR: liver injury,[4],can lead to liver injury; also recorded: can induce cholestatic liver injury
CCCC[C@@H](NC(=O)[C@@H](Cc1cn(C(=O)OC)c2ccccc12)NC(=O)[C@H](CC(C)(C)C)NC(=O)N1[C@H](C)CCC[C@@H]1C)C(=O)O [BQ-788],cerebral blood flow,[5],decrease of cerebral blood flow
